Data from patent US11401243B2, “Quinoline derived small molecule inhibitors of nicotinamide N-methyltransferase (NNMT) and uses thereof” (priority 2017, dated 2022).
“Also recorded” adds a separate entry of the source.

What was measured:
[1] = test system: 3T3-L1 pre-adipocytes cells; assay: MTT cell viability assay; assay type: cell-based
Description: Cells were treated for 24 h with 0.1-600 μM NNMT inhibitors in cell culture media. A 24 h time point was chosen based on a previous report of using this time period for transfecting or treating 3T3-L1 cells with NNMT anti-sense oligonucleotides or a small molecule NNMT product inhibitor (1-MNA), respectively, for phenotypic measures. MTT (3-(4,5-dimethylthiazol-2-yl)-2,5-diphenyltetrazolium bromide) (ATCC; Manassas, Va., USA) was added to each well and assayed according to the manufacturer's instructions. Absorbance corresponding to the amount of formazan dye produced by treated cells was normalized to that produced by control (untreated) cells to calculate % viable cells in the treated samples.

[2] = test system: NNMT activity in 3T3-L1 pre-adipocytes and differentiated adipocytes; assay: Quantitative measurement of NNMT reaction product 1-MNA in cultured cells (LC/MS/MS); assay type: cell-based; details: for intracellular levels of 1-MNA: 30 μM
Description: Differentiation of 3T3-L1 pre-adipocytes. […] Briefly, standard culture media was supplemented with scheduled addition of adipogenic agents [3-isobutyl-1methyl xanthine (IBMX), Sigma Aldrich; MO, USA), dexamethasone (Sigma Aldrich; MO, USA), insulin (Gibco Life Technologies Inc.; Grand Island, N.Y., USA)] over 10 days to promote differentiation of 3T3-L1 fibroblasts into adipocytes; a combination of 1 mM IBMX, 1 μM dexamethasone, and 10 μg/ml of insulin in media were added to fully confluent 3T3-L1 fibroblasts for three days (days 0-3) to initiate differentiation. At day 3, the media was replaced with culture media supplemented with insulin (10 μg/ml). After day 6, cells were maintained in culture media until described experiments were begun (days 8-10).
Cellular 1-MNA concentrations were determined using an ultra-sensitive high-resolution AB Sciex 6500 Q-trap mass spectrometer coupled to an Agilent 1260 ultra-high pressure liquid chromatography (LC/MS/MS) system. Using multiple reaction monitoring (MRM) positive ion mode, the 1-MNA NNMT reaction product was quantified from peak area ratios using AB Sciex Analyst and MultiQuant 2.1 software and the parent precursor and Q3 masses set to m/z 137.1 and 94.1, respectively. Fragment ions at m/z of 92.1 and 77.9 were additionally used for the detection and confirmation of 1-MNA, respectively. […]. To determine the effect of NNMT inhibitor on NNMT activity in the pre-adipocytes and differentiated adipocytes (8×10^4 cells/well seeded prior to beginning differentiation), cells were treated with 30 μM inhibitor for 24 h. Similarly, to compare the relative effects of multiple NNMT inhibitors on NNMT activity in cultured adipocytes, differentiated adipocytes in 6-well plates were treated with 10 μM test compound for 24 h. Following treatment, media was replaced with 80% (v/v) methanol (cooled to −80° C.) containing 500 nmol 6-chloronicotinamide (6-CN) as an internal standard (IS) to extract cellular metabolites. Adherent cells were scrapped, then centrifuged at 4° C. and 13000 g for 15 min, and the resulting supernatants processed using established protocols. […]. Data were subsequently normalized to the IS peak area and transformed as % control values for cross-sample comparisons. […] Choice of inhibitor concentrations and time period was chosen based on the results from the MTT studies.

[3] = target: recombinant human DNMT1 enzyme (Homo sapiens, UniProt P26358); assay: DNMT1 activity assay (radiometric); assay type: biochemical
Sequence of recombinant human DNMT1 enzyme (P26358 whole entry): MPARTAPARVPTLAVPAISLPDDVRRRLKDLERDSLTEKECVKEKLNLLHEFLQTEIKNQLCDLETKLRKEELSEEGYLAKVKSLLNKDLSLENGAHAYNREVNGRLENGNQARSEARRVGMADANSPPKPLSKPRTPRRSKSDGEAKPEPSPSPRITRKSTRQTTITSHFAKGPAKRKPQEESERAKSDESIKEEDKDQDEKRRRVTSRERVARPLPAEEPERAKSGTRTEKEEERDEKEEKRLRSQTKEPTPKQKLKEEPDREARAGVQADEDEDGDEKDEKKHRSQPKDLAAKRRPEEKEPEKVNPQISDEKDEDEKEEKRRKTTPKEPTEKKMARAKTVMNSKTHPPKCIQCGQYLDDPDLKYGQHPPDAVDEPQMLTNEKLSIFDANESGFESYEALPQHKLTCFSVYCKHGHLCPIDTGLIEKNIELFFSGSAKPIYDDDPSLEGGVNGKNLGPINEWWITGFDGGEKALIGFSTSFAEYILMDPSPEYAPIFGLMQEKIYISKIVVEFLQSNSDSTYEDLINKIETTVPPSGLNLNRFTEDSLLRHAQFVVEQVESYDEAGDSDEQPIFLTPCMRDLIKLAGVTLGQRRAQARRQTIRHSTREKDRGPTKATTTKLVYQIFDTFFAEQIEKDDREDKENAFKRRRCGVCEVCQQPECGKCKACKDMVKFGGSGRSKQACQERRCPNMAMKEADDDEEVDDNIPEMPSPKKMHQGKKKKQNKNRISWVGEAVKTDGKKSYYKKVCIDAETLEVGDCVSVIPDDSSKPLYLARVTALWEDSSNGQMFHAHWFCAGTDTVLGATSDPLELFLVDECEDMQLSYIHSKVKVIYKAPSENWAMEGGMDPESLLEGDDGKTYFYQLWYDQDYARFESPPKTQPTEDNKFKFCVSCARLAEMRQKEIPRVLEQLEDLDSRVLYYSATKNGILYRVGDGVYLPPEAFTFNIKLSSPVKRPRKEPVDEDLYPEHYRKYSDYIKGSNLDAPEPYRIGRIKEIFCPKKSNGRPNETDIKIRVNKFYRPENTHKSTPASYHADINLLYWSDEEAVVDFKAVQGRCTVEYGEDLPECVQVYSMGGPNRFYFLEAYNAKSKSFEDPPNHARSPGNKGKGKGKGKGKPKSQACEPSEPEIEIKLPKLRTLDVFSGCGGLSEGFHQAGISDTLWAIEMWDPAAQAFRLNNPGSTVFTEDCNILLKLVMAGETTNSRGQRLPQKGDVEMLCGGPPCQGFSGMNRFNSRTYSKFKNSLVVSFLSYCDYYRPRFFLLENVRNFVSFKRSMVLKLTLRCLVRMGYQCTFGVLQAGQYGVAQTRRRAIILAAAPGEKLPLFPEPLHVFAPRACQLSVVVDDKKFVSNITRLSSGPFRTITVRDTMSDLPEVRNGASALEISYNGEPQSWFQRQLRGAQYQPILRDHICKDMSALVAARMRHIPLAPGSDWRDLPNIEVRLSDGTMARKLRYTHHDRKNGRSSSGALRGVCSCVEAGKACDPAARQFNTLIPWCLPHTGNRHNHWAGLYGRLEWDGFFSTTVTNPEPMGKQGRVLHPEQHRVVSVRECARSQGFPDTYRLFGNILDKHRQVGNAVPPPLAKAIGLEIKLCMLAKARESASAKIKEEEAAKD

[4] = target: recombinant human PRMT3 enzyme (Homo sapiens, UniProt O60678); assay: PRMT3 activity assay (radiometric); assay type: biochemical; details: 10 nM to 200 μM (1,8-diMQ) or 600 μM (5-amino-1MQ)
Sequence of recombinant human PRMT3 enzyme (O60678 whole entry): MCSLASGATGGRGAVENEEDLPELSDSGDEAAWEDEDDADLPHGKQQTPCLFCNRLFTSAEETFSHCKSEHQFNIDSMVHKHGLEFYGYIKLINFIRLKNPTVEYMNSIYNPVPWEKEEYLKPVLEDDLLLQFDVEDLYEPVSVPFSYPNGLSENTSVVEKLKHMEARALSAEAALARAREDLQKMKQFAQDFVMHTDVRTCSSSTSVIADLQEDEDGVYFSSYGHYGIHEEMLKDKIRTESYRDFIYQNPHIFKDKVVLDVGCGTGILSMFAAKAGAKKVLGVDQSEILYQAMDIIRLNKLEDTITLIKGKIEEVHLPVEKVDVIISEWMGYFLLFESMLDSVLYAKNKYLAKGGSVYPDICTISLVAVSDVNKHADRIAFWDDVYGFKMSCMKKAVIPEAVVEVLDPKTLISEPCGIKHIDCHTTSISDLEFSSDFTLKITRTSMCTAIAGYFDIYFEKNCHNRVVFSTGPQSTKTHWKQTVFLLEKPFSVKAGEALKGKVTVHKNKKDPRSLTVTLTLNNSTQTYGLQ
Source text: Test compounds were screened in biochemical assays for activity against three structurally similar methyltransferases, including catechol-O-methyltransferase (COMT), DNA (cytosine-5)-methyltransferase 1 (DNMT1), and protein arginine methyltransferase 3 (PRMT3). Additional biochemical assays were used to test the ability of compounds to inhibit nicotinamide phosphoribosyl transferase (NAMPT) and NAD+-dependent protein deacetylase sirtuin 1 (SIRT1), two enzymes in the NAD+ biosynthesis/salvage pathway. All assays were performed by Reaction Biology Corporation (RBC; Malvern, Pa., USA) and complete assay details are noted below. For each test compound, IC50 values were calculated from dose-response curves established with 10 concentrations of a half-log dilution series. For each assay, established enzyme specific inhibitors were included as positive controls for enzyme function and assay reproducibility. IC50 values were determined by non-linear least-squares fitting of a 4-parameter dose-response curve to collected data points (Graphpad Prism 7.0; La Jolla, Calif., USA).
PRMT3 activity assay. […] The analogues, 1,8-diMQ and 5-amino-1MQ were tested at concentrations from 200 μM-10 nM and 600 μM-10 nM, respectively. Reactions were performed with 5 μM histone H3 (histone L-arginine) substrate, 1 μM radiolabeled S-adenosyl-L-[methyl-3H]methionine (SAM) co-substrate, and recombinant human PRMT3 enzyme. Activity was monitored via quantification of radiolabeled reaction product histone [methyl-3H]-L-arginine.

[5] = target: recombinant human NAMPT enzyme (Homo sapiens, UniProt P43490); assay: NAMPT activity assay (fluorometric); assay type: biochemical
Sequence of recombinant human NAMPT enzyme (P43490 whole entry): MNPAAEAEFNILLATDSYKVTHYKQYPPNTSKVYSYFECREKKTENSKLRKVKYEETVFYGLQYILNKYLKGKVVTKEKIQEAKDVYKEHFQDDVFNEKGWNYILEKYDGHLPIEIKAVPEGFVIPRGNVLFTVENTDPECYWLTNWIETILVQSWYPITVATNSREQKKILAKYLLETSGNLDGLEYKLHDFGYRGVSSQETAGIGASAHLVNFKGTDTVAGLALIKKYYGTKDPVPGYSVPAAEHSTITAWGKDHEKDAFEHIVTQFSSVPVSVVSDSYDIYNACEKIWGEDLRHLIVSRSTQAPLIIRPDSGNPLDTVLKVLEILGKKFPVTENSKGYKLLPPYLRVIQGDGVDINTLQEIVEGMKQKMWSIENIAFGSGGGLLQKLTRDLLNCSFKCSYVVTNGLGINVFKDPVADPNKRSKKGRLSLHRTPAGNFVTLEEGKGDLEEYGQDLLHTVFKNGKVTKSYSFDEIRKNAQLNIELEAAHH

[6] = Bi-directional permeability assay with Caco-2 cells; details: human
Caco-2 cells = assay: as above; details: Caco-2; listed as 5-amino-1MQ

With C[n+]1cccc2c(N)cccc21 [1j, 5-amino-1-methylquinolin-1-ium iodide] as the compound, how does the cell viability ([1]; 3T3-L1 pre-adipocytes, 10 μM, 24 h) read?
Its cell viability is “did not impact cell viability”.

What about the cytotoxicity ([1]; 3T3-L1 pre-adipocytes, 600 μM (highest concentration tested), 24 h) of the same compound?
The cytotoxicity was about 40%.

And the “cytotoxicity relative to untreated cells” value ([1]; 3T3-L1 pre-adipocytes, 100-300 μM, 24 h)?
The value was “modest cytotoxicity”.

What about the “3T3-L1 cell viability compared to untreated” value ([1]; highest tested concentration (0.1-60 μM range)) of the same compound?
The value was “only slightly reduced”.

And the “1-MNA levels in differentiated adipocytes relative to control” value ([2]; 10 μM, 24 h)?
The value was “significantly decreased”.

What about the EC50 ([2]; Mus musculus, 3T3-L1, 24 h, 0.3-60 μM, 3-parameter sigmoidal fit, read-out: EC50 for inhibition of NNMT (intracellular 1-MNA) in fully differentiated adipocytes) of the same compound?
The EC50 was 2.3 µM.

And the “intracellular levels of 1-MNA” value ([2]; adipocytes, 24 h)?
The value was “significant reduction”.

What about the “relative intracellular 1-MNA levels, % of level in untreated adipocytes” value ([2]; inhibitor concentrations 10-60 μM) of the same compound?
The value was about 40%.

What about the “intracellular levels of 1-MNA” value ([2]; pre-adipocytes, 24 h) of the same compound?
Its value is “significant reduction”.

What about the “inhibition of DNMT1 (in words)” value ([3]; 10 nM to 200 μM (1,8-diMQ) or 600 μM (5-amino-1MQ)) of the same compound?
Its value is “did not inhibit”.

And the IC50 ([3]; NI: no inhibition, read-out: IC50, DNA (cytosine-5)-methyltransferase 1)?
Its IC50 is over 200 µM.

What about the “inhibition of PRMT3 (in words)” value [4] of the same compound?
The value was “did not inhibit”.

And the IC50 ([5]; concentrations above 100 μM could not be tested (assay interference), read-out: IC50, Nicotinamide phosphoribosyl transferase)?
Its IC50 is over 100 µM.

And the “inhibition of NAMPT (in words)” value ([5]; up to 100 μM)?
The value was “did not inhibit”.

And the efflux ratio at 2 h, 10 μM ([6]; Caco-2)?
The efflux ratio at 2 h, 10 μM was 1.33.

And the Papp A→B at 2 h, 10 μM ([6]; Caco-2, pH 7.4)?
The Papp A→B at 2 h, 10 μM was 34.2 ×10⁻⁶ cm/s.

What about the Papp B→A at 2 h, 10 μM ([6]; Caco-2, pH 7.4) of the same compound?
The Papp B→A at 2 h, 10 μM was 45.2 ×10⁻⁶ cm/s.

And the “Classification (active transport / efflux)” value (Caco-2 cells)?
The value was “no detectable efflux; also recorded: High permeability”.
